In US9422292B2, “Bromodomain inhibitors and uses thereof” (Constellation Pharmaceuticals, Inc., priority 2011, dated 2016) one finds IC50 data, which are given here for 20 molecules.

The test system of test [1] is MYC mRNA in MV4:11 (AML) cells. Put plainly: cMyc RNA quantification assay (QuantiGene) in MV4:11 cells. Type of test: cell-based. The note with it: Homo sapiens, 4 h, QuantiGene 2.0. The protocol: B. cMyc RNA Quantification Assay (QuantiGene® Assay):
MV4:11 (AML) cells were seeded in a 96-well plate and incubated in the presence of various concentrations of compounds for 4 h. Relative mRNA levels were quantitated by using QuantiGene 2.0 assay (Affymetrix) according to the manufacturer's recommendation. Signals were detected by using an Envision plate reader (Perkin-Elmer). Biological duplicates were averaged and normalized to vehicle (DMSO) control to calculate percent MYC mRNA levels.

The test system of test [2] is IL-6 secretion in THP-1 cells. Kind of test: Cell-based IL-6 quantification assay (ELISA, Mesoscale) in LPS-treated THP-1 cells. The note with it: Homo sapiens, LPS 4 μg/mL, 16 h, ELISA value/CellTiter-Glo ratio. Summed up:
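THP-1 cells (100,000/well, RPMI-10% FBS) stimulated with 4 μg/mL LPS and incubated 16 h with compound at various concentrations. Supernatant IL-6 measured by Mesoscale ELISA, normalized to CellTiter-Glo cell content; % inhibition of secretion from the ratio.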
Background: An ELISA detects its analyte on a solid surface through an enzyme-linked reagent.

The target of the next test is T1, BRD4 (BD1) (Homo sapiens, UniProt O60885).
T1 construct: His; made in house
Put plainly: BRD4 AlphaLisa binding assay. The note with it: BRD4 (BD1) 30 nM, biotinylated H4-tetraacetyl peptide 200 nM; read-out: BRD4 AlphaLisa. The essentials:
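BRD4 (BD1) (30 nM final) with peptide (200 nM final) in 40 mM HEPES pH 7.0, 40 mM NaCl, 1 mM DTT, 0.01% BSA, 0.008% Brij-35, 1.2% DMSO, 20 min at RT with compound.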
In general terms: Alpha assays give light when donor and acceptor beads are brought close together.

The structures appear in SMILES notation.

For the molecule `Cc1c(-c2ccc3c(c2)N(c2ccc(Cl)cc2)C[C@@H](C)c2nnc(C)n2-3)cnn1C` [Compound 59, (R)-6-(4-chlorophenyl)-8-(1,5-dimethyl-1H-pyrazol-4-yl)-1,4-dimethyl-5,6-dihydro-4H-benzo[b][1,2,4]triazolo[4,3-d][1,4]diazepine], the IC50 (in test [1]; in test [2]; on BRD4 (BD1)) was less than 0.1 µM in each case.
Consider `Cc1nnc2n1-c1ccc(S(C)(=O)=O)cc1N(c1ccc(Cl)cc1)C[C@H]2C` [Compound 60, 4H-[1,2,4]Triazolo[4,3-a][1,5]benzodiazepine,5,6-dihydro-(4R)-1,4-dimethyl-8-methylsulfonyl-6-(4-chloro-phenyl)], for which the figures for the IC50 (in test [1]; in test [2]; on BRD4 (BD1)) were 1 to 10 µM, 0.1 to 1 µM and 0.1 to 1 µM, respectively.
Take `Cc1nnc2n1-c1ccc(-c3ccc(=O)[nH]c3)cc1N(c1ccc(Cl)cc1)C[C@H]2C` [Compound 61, (R)-5-(6-(4-chlorophenyl)-1,4-dimethyl-5,6-dihydro-4H-benzo[b][1,2,4]triazolo[4,3-d][1,4]diazepin-8-yl)pyridin-2(1H)-one]: the IC50 (in test [1]; in test [2]; on BRD4 (BD1)) was less than 0.1 µM throughout.
Turning to `Cc1nnc2n1-c1ccc(-c3ccc(=O)n(C)c3)cc1N(c1ccc(Cl)cc1)C[C@H]2C` [Compound 62, (R)-5-(6-(4-chlorophenyl)-1,4-dimethyl-5,6-dihydro-4H-benzo[b][1,2,4]triazolo[4,3-d][1,4]diazepin-8-yl)-1-methylpyridin-2(1H)-one], the IC50 (in test [1]; in test [2]; at BRD4 (BD1)) was less than 0.1 µM in each case.
Regarding `Cc1nnc2n1-c1ccc(-c3cnc(N)cn3)cc1N(c1ccc(C#N)cc1)C[C@@H]2C` [Compound 63], the IC50 in test [1] was 1 to 10 µM; in test [2] it was more than 1 µM; at BRD4 (BD1), 0.1 to 1 µM.
For `Cc1nnc2n1-c1ccc(-c3cn(C)nn3)cc1N(c1ccc(Cl)cc1)C[C@H]2C` [Compound 64, 4H-[1,2,4]Triazolo[4,3-a][1,5]benzodiazepine, 5,6-dihydro-1,4-dimethyl-8-(1-methyl-2H-1,2,3-triazole-4-yl)-6-(4-chloro-phenyl)], the IC50 (in test [1]; in test [2]; on BRD4 (BD1)) was less than 0.1 µM throughout.
Regarding `Cc1ncnn1-c1ccc2c(c1)N(c1ccc(Cl)cc1)C[C@@H](C)c1nnc(C)n1-2` [Compound 65, (R)-6-(4-chlorophenyl)-1,4-dimethyl-8-(5-methyl-1H-1,2,4-triazol-1-yl)-5,6-dihydro-4H-benzo[b][1,2,4]triazolo[4,3-d][1,4]diazepine], the IC50 in test [1] lay in the range of 1 to 10 µM; in test [2] it was 0.1 to 1 µM; on BRD4 (BD1), 0.1 to 1 µM.
Consider `Cc1ncn(-c2ccc3c(c2)N(c2ccc(Cl)cc2)C[C@@H](C)c2nnc(C)n2-3)n1` [Compound 66, (R)-6-(4-chlorophenyl)-1,4-dimethyl-8-(3-methyl-1H-1,2,4-triazol-1-yl)-5,6-dihydro-4H-benzo[b][1,2,4]triazolo[4,3-d][1,4]diazepine], for which the IC50 (in test [1]; in test [2]; at BRD4 (BD1)) was less than 0.1 µM each time.
For `Cc1nnc2n1-c1ccc(-c3ccc(=O)[nH]c3)cc1N(c1ccc(C#N)cc1)C[C@H]2C` [Compound 68, (R)-4-(1,4-dimethyl-8-(6-oxo-1,6-dihydropyridin-3-yl)-4H-benzo[b][1,2,4]triazolo[4,3-d][1,4]diazepin-6(5H)-yl)benzonitrile], the IC50 in test [1] was 1 to 10 µM; in test [2], 1 to 10 µM; at BRD4 (BD1), less than 0.1 µM.
For `Cc1nnc2n1-c1ccc(-c3ccc(N)nc3)cc1N(c1ccc(N)nc1)C[C@H]2C` [Compound 71, (R)-5,5′-(1,4-dimethyl-4H-benzo[b][1,2,4]triazolo[4,3-d][1,4]diazepine-6,8(5H)-diyl)dipyridin-2-amine], the IC50 in test [1] was 1 to 10 µM; in test [2], 1 to 10 µM; on BRD4 (BD1), less than 0.1 µM.
In the case of `Cc1nnc2n1-c1ccc(-c3cnn(C)n3)cc1N(c1ccc(S(C)(=O)=O)cc1)C[C@@H]2C` [Compound 72, (R)-4H-[1,2,4]Triazolo[4,3-a][1,5]benzodiazepine, 5,6-dihydro-1,4-dimethyl-8-(2-methyl-2H-1,2,3-triazole-4-yl)-6-(4-methylsulfonyl-phenyl)], the figures for the IC50 (in test [1]; in test [2]; at BRD4 (BD1)) were 1 to 10 µM, more than 1 µM and 0.1 to 1 µM, respectively.
Taken in the same sequence, the figures for `Cc1nnc2n1-c1ccc(-c3cnn(C)n3)cc1N(c1ccc(S(C)(=O)=O)cc1)C[C@H]2C` [Compound 73, (S)-4H-[1,2,4]Triazolo[4,3-a][1,5]benzodiazepine, 5,6-dihydro-1,4-dimethyl-8-(2-methyl-2H-1,2,3-triazole-4-yl)-6-(4-methylsulfonyl-phenyl)] were 0.1 to 1 µM, 0.1 to 1 µM and less than 0.1 µM.
On to `Cc1nnc2n1-c1ccc(-c3cnn(C)n3)cc1N(c1ccc(C#N)cc1)C[C@H]2C` [Compound 75, (S)-4H-[1,2,4]Triazolo[4,3-a][1,5]benzodiazepine, 5,6-dihydro-1,4-dimethyl-8-(2-methyl-2H-1,2,3-triazole-4-yl)-6-(4-cyano-phenyl)], for which the IC50 (in test [1]; in test [2]; on BRD4 (BD1)) was less than 0.1 µM each time.
As for `Cc1nnc2n1-c1ccc(Br)cc1N(c1ccc(S(C)(=O)=O)cc1)C[C@H]2C` [Compound 77, (R)-8-bromo-1,4-dimethyl-6-(4-(methylsulfonyl)phenyl)-5,6-dihydro-4H-benzo[b][1,2,4]triazolo[4,3-d][1,4]diazepine], the IC50 in test [1] was 1 to 10 µM; in test [2], more than 1 µM; at BRD4 (BD1), 1 to 10 µM.
Turning to `Cc1nnc2n1-c1ccc(-c3cn[nH]c3)cc1N(c1ccc(C#N)cc1)C[C@H]2C` [Compound 80, (R)-4-(1,4-dimethyl-8-(1H-pyrazol-4-yl)-4H-benzo[b][1,2,4]triazolo[4,3-d][1,4]diazepin-6(5H)-yl)benzonitrile], the IC50 (in test [1]; in test [2]; at BRD4 (BD1)) was less than 0.1 µM each time.
Take `Cc1nnc2n1-c1ccc(-c3cnn(CC(N)=O)c3)cc1N(c1ccc(C#N)cc1)C[C@H]2C` [Compound 81, (R)-2-(4-(6-(4-cyanophenyl)-1,4-dimethyl-5,6-dihydro-4H-benzo[b][1,2,4]triazolo[4,3-d][1,4]diazepin-8-yl)-1H-pyrazol-1-yl)acetamide]: the IC50 is 1 to 10 µM in test [1], more than 1 µM in test [2] and less than 0.1 µM on BRD4 (BD1).
With `Cc1nnc2n1-c1ccc(-c3ccc(=O)[nH]c3)cc1N(c1ccc(Cl)cn1)C[C@H]2C` [Compound 82, (R)-5-(6-(5-chloropyridin-2-yl)-1,4-dimethyl-5,6-dihydro-4H-benzo[b][1,2,4]triazolo[4,3-d][1,4]diazepin-8-yl)pyridin-2(1H)-one], the values for the IC50 (in test [1]; in test [2]; at BRD4 (BD1)) were 0.1 to 1 µM, more than 1 µM and 0.1 to 1 µM, respectively.
On to `Cc1nnc2n1-c1ccc(-c3cnc(N)cn3)cc1N(c1ccc(Cl)cn1)C[C@H]2C` [Compound 83, (R)-5-(6-(5-chloropyridin-2-yl)-1,4-dimethyl-5,6-dihydro-4H-benzo[b][1,2,4]triazolo[4,3-d][1,4]diazepin-8-yl)pyrazin-2-amine], for which the IC50 (in test [1]; in test [2]; at BRD4 (BD1)) was less than 0.1 µM throughout.
Regarding `COc1ccc2c(n1)N(c1ccc(C#N)cc1)CC(C)c1nnc(C)n1-2` (stereo not drawn) [Compound 84, 4-(8-methoxy-1,4-dimethyl-4H-pyrido[2,3-b][1,2,4]triazolo[4,3-d][1,4]diazepin-6(5H)-yl)benzonitrile], the IC50 in test [1] is 1 to 10 µM; in test [2] it was more than 1 µM; on BRD4 (BD1), more than 0.5 µM.
Taken in the same sequence, the figures for `Cc1[nH]c(=O)ccc1-c1ccc2c(c1)N(c1ccc(Cl)cc1)C[C@@H](C)c1nnc(C)n1-2` [Compound 85, (R)-5-(6-(4-chlorophenyl)-1,4-dimethyl-5,6-dihydro-4H-benzo[b][1,2,4]triazolo[4,3-d][1,4]diazepin-8-yl)-6-methylpyridin-2(1H)-one] were 0.1 to 1 µM, more than 1 µM and 0.1 to 1 µM.
